# Measured values published in patent US10434181B2, “Oligomer-containing benzamide-based compounds” (Nektar Therapeutics, priority 2012, dated 2019).
# Several values for one entry are separate records, joined by “and”; a condition that tells them apart may be missing. Identical values can stand only once.
# Columns and labels:
# human hepatocytes = assay: MetID determination in human hepatocytes; assay type: in vitro ADME
# Description: (§1) Cryopreserved human and Sprague-Dawley rat hepatocytes were thawed in a 37° C. water bath. […] Samples were obtained from separate plates for each time point during the incubation. At each sampling time, the plates were removed from the incubator, quenched by adding 100 μL cold acetonitrile, and placed in an ice bath until centrifugation at 4,000 rpm for 30 minutes at 4° C. Supernatants were stored at or below −70° C. until LC-MS/MS analysis could be conducted. The liquid chromatography system used was Agilent 1100 Autosampler, Binary Pump, DAD and Column Enclosure. Tandem mass spectrometry was conducted using a Thermo DECA XP MAX Ion Trap Mass Spectrometer. The ion source was Electrospray (+) and the LC column used was a Varian, Polaris 5 C18-A (250×2.1 mm, 5 micron) column.
# (§2) Metabolic pathways of metoclopramide and conjugates were determined in rat and human hepatocytes. N-dealkylation was the major metabolic pathway for metoclopramide in rats, and metabolism in human hepatocytes was minimal. […] FIG. 2 and FIG. 3 show the metabolic pathway of for mPEG1-N-metoclopramide and mPEG4-N-metoclopramide, respectively. […] In this figure, different metabolites for each conjugate are denoted with the “M” and correspond to the designation provided in the figure for a given conjugate. For example, metabolite M1 for mPEG1-N-metoclopramide in Table 6 corresponds to M1 in FIG. 2, metabolite M2 for mPEG4-N-metoclopramide in Table 6 corresponds to M2 in FIG. 3 and metabolite M3 mPEG8-N-metoclopramide in Table 6 corresponds to M3 in FIG. 4.
# [1] = tested on: Sprague-Dawley rat hepatocytes; assay: MetID determination in rat hepatocytes; assay type: in vitro ADME; settings: for major metabolic pathway: rat hepatocytes
# Description: as §1, §2
# in vivo = settings: male, Sprague Dawley, rat, plasma; for AUC(0-inf) / MRT inf / Vd / clearance / half-life: iv, 0.5 mg/kg
# Description: (§3) Rat pharmacokinetic (“PK”) characterization was conducted in male Sprague Dawley Rats (Rattus Norvegicus) weighing between 210-260 gm (Charles River Laboratories (Hollister, Calif.)). Rats were fed a standard diet and water was available ad-libidum at all times. […] Animals were dosed either orally (2.5 mg/Kg) via gavage or intravenously (0.5 mg/kg) via the jugular vein cannula. Blood samples (˜0.15 mL) were collected through carotid artery cannula at respective time points and transferred immediately into K2EDTA-coated tubes (that contain quenching media-acetic acid, PMSF and Dichlorvos) and placed on ice. The samples were centrifuged within thirty minutes after collection at 10,000 RPM for five minutes and the resulting plasma was separated. Plasma were transferred into microfuge tubes and placed on dry ice immediately. The plasma samples were stored at approximately −70° C. until shipped on dry ice for Bioanalysis by LC/MS/MS. Urine samples were collected using metabolic cages into a tube containing citric acid (4 mg for 0-4 and 4-8 hr interval and 16 mg for 8-24 hr interval) on wet ice at the intervals specified in the study design. After the completion of urine collection at each interval, each cage was rinsed with 2 mL of deionized water (1 mL each time). The rinse was collected in the separate labeled container (containing 2 mg of citric acid) as the urine. Following this rinse another 2 ml rinse was carried out with ethanol (1 ml each time). The rinse was also collected in the separate labeled container as the urine. Samples were stored frozen at −70° C. until bioanalysis by LC/MS/MS was performed.
# (§4) Pharmacokinetic parameters were determined by non-compartmental analysis using Phoenix®WinNonlin® (Version 6.3; Pharsight Corp., Mountain View, Calif.). Nominal doses and sampling times were used for the analysis. Concentrations reported as BLQ were treated as missing unless they were pre-dose; then they were set to zero. Maximum plasma concentration (Cmax) and time of observed maximum plasma analyte concentration (Tmax) were generated by Phoenix®WinNonlin®, directly from the inputed dataset. […] Area under the plasma concentration-time curve from time 0 to infinity (AUCinf) was calculated as the sum of AUClast and the last observed concentration divided by k. Total plasma clearance (CL) was calculated as Dose/AUCinf. Apparent volume of distribution at steady state (Vss) was calculated as MRTinf*CL, where MRT is the mean residence time.
# [2] = molecular target: T1, 5HT4B receptors (serotonin 4B receptors) (Homo sapiens, UniProt Q13639); assay: Competition binding assay (serotonin 4B receptors), [3H]GR113808; settings: for Fold-change Relative to Parent: IC50 relative to metoclopramide, 5HT4B binding; for IC50: [3H]GR113808 competition, HEK 293 membranes expressing 5HT4B
# T1 construct: expressed in transfected cells
# T1 sequence (Q13639 whole entry): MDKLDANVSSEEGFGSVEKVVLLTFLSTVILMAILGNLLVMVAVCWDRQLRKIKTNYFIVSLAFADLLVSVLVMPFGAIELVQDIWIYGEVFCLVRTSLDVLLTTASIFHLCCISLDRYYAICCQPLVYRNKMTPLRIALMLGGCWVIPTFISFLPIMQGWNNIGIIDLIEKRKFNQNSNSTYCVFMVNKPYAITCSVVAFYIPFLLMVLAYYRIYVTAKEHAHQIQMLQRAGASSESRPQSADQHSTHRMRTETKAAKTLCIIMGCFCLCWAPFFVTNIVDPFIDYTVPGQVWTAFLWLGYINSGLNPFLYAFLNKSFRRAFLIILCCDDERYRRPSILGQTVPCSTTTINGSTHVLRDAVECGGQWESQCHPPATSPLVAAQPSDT
# dopamine 2L receptors = dopamine 2L receptors (Homo sapiens, UniProt P14416); assay: Competition binding assay (dopamine 2L receptors), [3H]methylspiperone; set-up: expressed in transfected cells; settings: for Fold-change Relative to Parent: IC50 relative to metoclopramide, D2L binding; for IC50: [3H]methylspiperone competition, HEK 293 membranes expressing D2L, read-out: IC50
# dopamine 2L receptors, sequence (P14416 whole entry): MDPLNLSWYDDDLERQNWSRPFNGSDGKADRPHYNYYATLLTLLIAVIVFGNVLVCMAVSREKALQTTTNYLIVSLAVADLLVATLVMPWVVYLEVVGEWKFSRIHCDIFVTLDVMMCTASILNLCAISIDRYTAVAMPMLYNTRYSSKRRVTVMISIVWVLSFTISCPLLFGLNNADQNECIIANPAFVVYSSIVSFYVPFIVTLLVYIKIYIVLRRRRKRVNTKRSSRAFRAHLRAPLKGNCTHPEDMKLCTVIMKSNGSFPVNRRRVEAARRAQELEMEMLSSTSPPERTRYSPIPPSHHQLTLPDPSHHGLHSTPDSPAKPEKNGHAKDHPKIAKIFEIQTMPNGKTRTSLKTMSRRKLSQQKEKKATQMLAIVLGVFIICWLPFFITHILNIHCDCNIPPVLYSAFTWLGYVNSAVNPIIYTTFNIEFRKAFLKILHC
# Description: [^3H] Methylspiperone was diluted in assay buffer to a final concentration of 0.4 nM. To start the assay, 1 uL of compound was added into 96-well v-bottom plates, followed by the addition of 50 uL of diluted membrane preparation, then finally diluted [^3H] Methylspiperone was added. The assay mixture was incubated for 60 minutes at room temperature with shaking. Following incubation, bound [^3H] methylspiperone on 5% PEI soaked GF/B filter plates using a Filtermate Harvester (Perkin Elmer) were then washed four times with ice cold wash buffer (50 mM Tris-HCl, pH 7.5). Filter plates were air dried for two minutes, and then 50 uL of MicroScint-20 was added into each well. Radioactivity counts were quantified using a Top Count plate reader (Perkin Elmer). Data was analyzed using one-site binding competition non-linear regression curve fitting on GraphPad Prism.
# dopamine 2S receptor = molecular target: T2, dopamine 2S receptor (Homo sapiens, UniProt P14416); assay: β-Arrestin functional assay (dopamine), antagonist mode; assay type: cell-based; settings: for Fold-change Relative to Parent: IC50 relative to metoclopramide, D2S β-arrestin; for IC50: β-arrestin interaction, CHO-K1 cells expressing D2S, dopamine at EC80 (400 nM)
# T2 construct: host or cells: CHO-K1 (PathHunter eXpress β-arrestin cells)
# T2 sequence (P14416 1-414 isoform P14416-2): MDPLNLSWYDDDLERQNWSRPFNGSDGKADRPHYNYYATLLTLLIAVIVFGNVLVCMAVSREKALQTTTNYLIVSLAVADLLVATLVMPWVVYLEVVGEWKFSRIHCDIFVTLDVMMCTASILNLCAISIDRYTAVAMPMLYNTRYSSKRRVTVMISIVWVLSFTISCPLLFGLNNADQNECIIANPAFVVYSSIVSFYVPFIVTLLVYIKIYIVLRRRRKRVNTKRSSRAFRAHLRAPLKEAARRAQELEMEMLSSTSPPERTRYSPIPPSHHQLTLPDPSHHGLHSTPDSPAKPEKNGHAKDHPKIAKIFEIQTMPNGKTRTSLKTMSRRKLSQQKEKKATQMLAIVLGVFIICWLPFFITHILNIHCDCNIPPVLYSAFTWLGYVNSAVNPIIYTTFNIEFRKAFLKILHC
# [3] = molecular target: serotonin 4 receptor (5HT4) (Homo sapiens, UniProt Q13639); assay: cAMP accumulation assay (serotonin 4 receptors); assay type: cell-based; settings: for Fold-change Relative to Parent: IC50 relative to metoclopramide, 5HT4 cAMP; for IC50: cAMP accumulation, CHO-K1 cells stably expressing 5HT4
# serotonin 4 receptor (5HT4), sequence (Q13639 whole entry, species assumed): as the sequence (Q13639 whole entry) above
# [4] = Rat PK (intravenous and oral); settings: for CLRen: intravenous, 0.5 mg/kg; for Clast / Tlast: oral gavage, 2.5 mg/Kg
# Description: as §3, §4
# [5] = incubation of 10 μM mPEG8-N-metoclopramide, parent and its metabolites M (FIG. 4)
# [6] = incubation of 10 μM mPEG1-N-metoclopramide, parent and its metabolites M (FIG. 2)
# [7] = incubation of 10 μM mPEG4-N-metoclopramide, parent and its metabolites M (FIG. 3)
"% of Total Metabolism, Human Hep 1 hr (human hepatocytes; [5])","% of Total Metabolism, Human Hep 4 hr (human hepatocytes; [5])","% of Total Metabolism, Rat Hep 1 hr [1, 5]","% of Total Metabolism, Rat Hep 4 hr [1, 5]",AUC(0-inf) (in vivo),MRT inf (in vivo),Vd (in vivo),clearance (in vivo),half-life (in vivo),extent of metabolism in human hepatocytes (human hepatocytes),Fold-change Relative to Parent [2],IC50 [2],Fold-change Relative to Parent (dopamine 2L receptors),IC50 (dopamine 2L receptors),Fold-change Relative to Parent (dopamine 2S receptor),IC50 (dopamine 2S receptor),major metabolic pathway [1],CLRen [4],Structure (SMILES),further results
trace,trace,Trace,1%,–,–,–,–,–,–,–,–,–,–,–,–,–,–,CCN(CCNC(=O)c1cc(Cl)c(N)cc1OC)CCOCCOCCOCCOCCOCCO [M15],–
trace,trace,trace,trace,–,–,–,–,–,–,–,–,–,–,–,–,–,–,CCN(CCNC(=O)c1cc(Cl)c(N)cc1OC)CCOCCOCCOCCOCCOCCOCCO [M16],–
trace,trace,trace,trace,–,–,–,–,–,–,–,–,–,–,–,–,–,–,CCN(CCNC(=O)c1cc(Cl)c(N)cc1OC)CCOCCOCCOCCOCCOCCOCCOCCO [M17],–
–,–,–,–,88.3 ng·h/mL,27.6 min,2.84 L/kg,101 mL/min/kg,39 min,low metabolism,1.3,19.7 µM,2.8,0.233 µM,4.19,0.345 µM,N-dealkylation,4.4 mL/min/kg,CCN(CCNC(=O)c1cc(Cl)c(N)cc1OC)CCOC [mPEG1-N-Metoclopramide],"AUC (in vivo; po, 2.5 mg/kg): 24.2 ng·h/mL; CL/F (in vivo; po, 2.5 mg/kg): 1550 mL/min/kg; Cmax (in vivo; po, 2.5 mg/kg): 33.2 ng/mL; Tmax (in vivo; po, 2.5 mg/kg): 4.8 min; bioavailability (in vivo; po, 2.5 mg/kg): 6.25%; % of Total Metabolism, Human Hep 1 hr (human hepatocytes; [6]): 86.5%; % of Total Metabolism, Human Hep 4 hr (human hepatocytes; [6]): 90.2%; % of Total Metabolism, Rat Hep 1 hr [1, 6]: 32.7%; % of Total Metabolism, Rat Hep 4 hr [1, 6]: <1.0%; Fold-change Relative to Parent [3]: 1.5; IC50 [3]: 1.59 µM; Clast [4]: 4.39 ng/mL; Tlast [4]: 2.5 h"
–,–,–,–,–,–,–,–,–,–,2.0,29.7 µM,16.1,1.36 µM,9.57,0.786 µM,–,–,CCN(CCNC(=O)c1cc(Cl)c(N)cc1OC)CCOCCOC [mPEG2-N-Metoclopramide],–
–,–,–,–,63.5 ng·h/mL,33.6 min,7.17 L/kg,133 mL/min/kg,39 min,low metabolism,2.0,30.7 µM,38.7,3.26 µM,37.03,3.04 µM,N-dealkylation,9.0 mL/min/kg,CCN(CCNC(=O)c1cc(Cl)c(N)cc1OC)CCOCCOCCOCCOC [mPEG4-N-Metoclopramide],"AUC (in vivo; po, 2.5 mg/kg): 41.4 ng·h/mL; Cmax (in vivo; po, 2.5 mg/kg): 16.6 ng/mL; Tmax (in vivo; po, 2.5 mg/kg): 120 min; bioavailability (in vivo; po, 2.5 mg/kg): 14.5%; % of Total Metabolism, Human Hep 1 hr (human hepatocytes; [7]): 100%; % of Total Metabolism, Human Hep 4 hr (human hepatocytes; [7]): 93.7%; % of Total Metabolism, Rat Hep 1 hr [1, 7]: 61.5%; % of Total Metabolism, Rat Hep 4 hr [1, 7]: 16.1%; Fold-change Relative to Parent [3]: 0.62; IC50 [3]: 0.644 µM and 0.64 µM; Clast [4]: 3 ng/mL; Tlast [4]: 5 h"
–,–,–,–,–,–,–,–,–,–,8.8,133 µM,137.3,11.6 µM,99.57,8.18 µM,–,–,CCN(CCNC(=O)c1cc(Cl)c(N)cc1OC)CCOCCOCCOCCOCCOCCOCCOC [mPEG7-N-Metoclopramide],–
100%,94.8%,83%,43.5%,98.3 ng·h/mL,146 min,17.8 L/kg,84.4 mL/min/kg,145 min,only minor metabolism,11.9,181 µM,80.7,6.79 µM,67.4,5.53 µM and 5.54 µM,PEG chain modification,0.54 mL/min/kg,CCN(CCNC(=O)c1cc(Cl)c(N)cc1OC)CCOCCOCCOCCOCCOCCOCCOCCOC [mPEG8-N-Metoclopramide],N-dealkylation compared with metoclopramide ([1]; hepatocytes): less compared with metoclopromide
–,–,–,–,–,–,–,–,–,–,13.3,202 µM,131.9,11.1 µM,87.86,7.22 µM,–,–,CCN(CCNC(=O)c1cc(Cl)c(N)cc1OC)CCOCCOCCOCCOCCOCCOCCOCCOCCOC [mPEG9-N-Metoclopramide],Fold-change Relative to Parent (dopamine 2S receptor; listed as mPEG9-N-metoclopramide): 87.6
